Consider four molecules from publication PMC3789652 (Journal of pharmaceutical sciences, 2011).

SMILES strings stand for the structures.

The nature of data set [1]: n-octanol / sodium phosphate buffer. The data set is classed as physicochemical. Conditions: n-octanol/sodium phosphate buffer pH 7.4, 0.15 M, room temperature; mean ± SD, n = 6.
Data set [2] concerns plasma proteins. As to the kind of experiment: plasma free fraction by ultrafiltration, human plasma. As to conditions: mean ± SD, n = 3; for mlogDpr/pl Human: log10[(1−fp)/fp]; for fP Human: ultrafiltration, room temperature. It is filed as in vitro ADME.
The test system of data set [3] is plasma proteins. As to the kind of experiment: plasma free fraction by ultrafiltration, monkey plasma. As to conditions: mean ± SD, n = 3; for fP Monkey: arterial monkey plasma, ultrafiltration, room temperature; for mlogDpr/pl Monkey: log10[(1−fp)/fp], monkey plasma. The data set is classed as in vitro ADME, rhesus monkeys (Macaca mulatta).

In turn, `COc1ccccc1N1CCN(CCCCn2ncc(=O)n(C)c2=O)CC1` [Radiotracer 1, [O-methyl-^11C]2-(4-(4-(2-methoxyphenyl)piperazin-1-yl)butyl)-4-methyl-1,2,4-triazine-3,5(2H,4H)dione] returned a mlogD in data set [1] of 1.13 ± 0.02. Moreover, the “mlogDpr/pl Human” value in the data set with plasma proteins [2] is on record as 0.101 ± 0.006. Further, in the data set with plasma proteins [3], the “fP Monkey” value is reported as 0.594 ± 0.016 and the “mlogDpr/pl Monkey” value is given as −0.165 ± 0.029.
In turn, `N#Cc1cc(F)cc(C#Cc2csc(CF)n2)c1` [Radiotracer 4, 3-fluoro-5-(2-(2-(fluoromethyl)thiazol-4-yl)ethynyl)benzonitrile] returned a mlogD in data set [1] of 2.18 ± 0.22. In the data set on plasma proteins [2], the “mlogDpr/pl Human” value amounted to 1.25 ± 0.13 and the “fP Human” value was 0.0550 ± 0.0165.
As to `CN([11CH3])C(=O)C(CCN1CCC(O)(c2ccc(Cl)cc2)CC1)(c1ccccc1)c1ccccc1` [Radiotracer 7, [N-methyl-^11C]N-desmethyl-loperamide], the “fP Human” value in the data set with plasma proteins [2] stood at 0.123 ± 0.015.
In the case of `[2H]C([18F])Oc1cccc([C@H]2C[C@@H](N[C@H](C)c3ccccc3)C(=O)N2c2ccc(C(F)(F)F)cc2)c1` (stereo partly shown) [Radiotracer 18], the mlogD in data set [1] was 4.24 ± 0.08. For the same molecule, in the data set on plasma proteins [2], the “mlogDpr/pl Human” value stood at 2.31 ± 0.14 and the “fP Human” value was found to be 0.0050 ± 0.0017. Also, in the data set on plasma proteins [3], the “fP Monkey” value was 0.0041 ± 0.0001 and the “mlogDpr/pl Monkey” value amounted to 2.39 ± 0.01.
